Reference: the NIST ThermoML archive (doi:10.1016/j.jct.2006.01.015)
Numbers after ± are expanded uncertainties.

What was measured:
[1] = 101 kPa, Liquid
[2] = xn = mol fraction of the nth substance listed; conditions: 101 kPa, Liquid

CC(=O)N(C)C [N,N-dimethylethanamide]
[1]
Conditions	mass density [kg/m3]
293.15 K	941 ± 0.9
298.15 K	936.5 ± 0.9
303.15 K	932 ± 1
308.15 K	927.6 ± 1
313.15 K	923.1 ± 1
318.15 K	918.6 ± 1.1

CN(C)C=O [dimethylformamide] + CC#N
[2], x2 = 0
Conditions	mass density [kg/m3]
293.15 K	949.1 ± 0.9
298.15 K	944.6 ± 0.9
303.15 K	940.1 ± 1
308.15 K	935.7 ± 1
313.15 K	931.2 ± 1
318.15 K	926.7 ± 1.1

CC#N [acetonitrile] + NC=O
[2], x1 = 1
Conditions	mass density [kg/m3]
293.15 K	782.1 ± 0.7
298.15 K	776.8 ± 0.7
303.15 K	771.5 ± 0.8
308.15 K	766.3 ± 0.8
313.15 K	761 ± 0.8
318.15 K	755.7 ± 0.9

CC#N [acetonitrile]
[1]
Conditions	mass density [kg/m3]
293.15 K	782.1 ± 0.7
298.15 K	776.8 ± 0.7
303.15 K	771.5 ± 0.8
308.15 K	766.3 ± 0.8
313.15 K	761 ± 0.8
318.15 K	755.7 ± 0.9

NC=O [formamide]
[1]
Conditions	mass density [kg/m3]
293.15 K	1133 ± 1.2
298.15 K	1129 ± 1.2
303.15 K	1125 ± 1.2
308.15 K	1121 ± 1.3
313.15 K	1117 ± 1.3
318.15 K	1113 ± 1.4

CNC(C)=O [N-methylacetamide]
[1]
Conditions	mass density [kg/m3]
293.15 K	958.4 ± 0.9
298.15 K	954.2 ± 1
303.15 K	950.1 ± 1
308.15 K	945.9 ± 1
313.15 K	941.7 ± 1.1
318.15 K	937.6 ± 1.1

CC#N [acetonitrile] + CNC(C)=O
[2], x1 = 1
Conditions	mass density [kg/m3]
293.15 K	782.1 ± 0.7
298.15 K	776.8 ± 0.7
303.15 K	771.5 ± 0.8
308.15 K	766.3 ± 0.8
313.15 K	761 ± 0.8
318.15 K	755.7 ± 0.9

CN(C)C=O [dimethylformamide]
[1]
Conditions	mass density [kg/m3]
293.15 K	949.1 ± 0.9
298.15 K	944.6 ± 0.9
303.15 K	940.1 ± 1
308.15 K	935.7 ± 1
313.15 K	931.2 ± 1
318.15 K	926.7 ± 1.1

CC#N [acetonitrile] + CC(=O)N(C)C
[2], x1 = 1
Conditions	mass density [kg/m3]
293.15 K	782.1 ± 0.7
298.15 K	776.8 ± 0.7
303.15 K	771.5 ± 0.8
308.15 K	766.3 ± 0.8
313.15 K	761 ± 0.8
318.15 K	755.7 ± 0.9
